In brackets after ≈: the same amount, converted by molar mass.
Assays:
Oncorhynchus mykiss [1] = assay: LC10; higher = less toxic; details: chronic/long-term; mortality
Folsomia candida = details: chronic/long-term; duration: 28 days; reproduction
Apis mellifera = details: acute, mortality
Oncorhynchus mykiss [2] = details: acute; duration: 96 hours; mortality
Oryctolagus sp. = details: reproduction developmental; body weight
Tagia sp. = details: chronic/long-term; duration: 56 days; reproduction
Daphnia magna = details: chronic/long-term; duration: 21 days; reproduction
Hyalella azteca = details: chronic/long-term; duration: 42 days

Question: What does the source list for CCCCN(CC)c1c([N+](=O)[O-])cc(C(F)(F)F)cc1[N+](=O)[O-] [Benfluralin]?
Answer: LC10 (Oncorhynchus mykiss [1]): 0.0013 µg/mL (≈ 0.00388 µM); NOEC (Folsomia candida): 5.5 mg/kg; LD50 (Apis mellifera; dermal): > 100 µg/piece; LD50 (Apis mellifera; oral, unspecified): > 111 µg/piece; LC50 (Oncorhynchus mykiss [2]): 0.081 µg/mL (≈ 0.242 µM); NOAEL (Oryctolagus sp.): 50 mg/kg-day; NOEC (Tagia sp.): 15.4 mg/kg; LD50 (Rattus norvegicus; acute, oral, mortality): > 5000 mg/kg-day; NOAEL (Rattus norvegicus; chronic, duration: 2 years, histopathology: nonneoplastic): 0.5 mg/kg-day; NOAEL (Rattus norvegicus; reproduction developmental, body weight): 5.5 mg/kg-day; NOEC (Daphnia magna): 0.046 mg/L; LD50 (Colinus virginianus; acute, oral, mortality): > 2000 mg/kg-day; NOEL (Colinus virginianus; reproduction developmental): 6.7 mg/kg-day; NOEC (Hyalella azteca): 83 mg/kg

Source: EPA's ToxValDB 9.5 (doi:10.2903/j.efsa.2019.5842)
